What was measured:
healthy dogs = assay: PK/PD studies of diuretic effect (urinary volume) after one-day and fourteen-day oral administration; format: in vivo; settings: for Urinary volume on day 1 / Urinary volume on day 14: healthy dogs
Protocol: Two pharmacokinetics studies (PK/PD) in healthy dogs have been performed to investigate and model the pharmacodynamic effects of torasemide, furosemide and placebo after a one-day and fourteen-day oral administration of furosemide at the following doses: 1 and 4 mg/kg/12 hours, and of torasemide at the following doses: 0.2, 0.25, 0.30 and 0.50 mg/kg/day. • 1 and 4 mg/kg furosemide have been administered to five dogs on the basis of repeated oral administration twice daily for 14 days (corresponding to 2 and 8 mg/kg/day). • 0 (placebo), 0.2, 0.25, 0.30 and 0.50 mg/kg torasemide have been administered to five dogs on the basis of repeated oral administration daily for 14 days.

[1] = test system: dog model having no clinical signs of heart failure; settings: 0.2 mg/kg/day torasemide versus 2 mg/kg/day furosemide, seven days; cited from earlier work
[2] = test system: dogs that had become resistant to furosemide; settings: torasemide dose ten times lower (1/10) than reference furosemide dose; cited from earlier work
[3] = furosemide 2 mg/kg/day (1 mg/kg/12 hours) oral
[4] = furosemide 8 mg/kg/day (4 mg/kg/12 hours) oral
[5] = torasemide 0.20 mg/kg/day oral once daily
[6] = torasemide 0.25 mg/kg/day oral once daily
[7] = torasemide 0.30 mg/kg/day oral once daily
[8] = torasemide 0.5 mg/kg/day oral once daily

Compound	Urinary volume on day 1 (healthy dogs; [3]) [mL]	Urinary volume on day 14 (healthy dogs; [3]) [mL]	Urinary volume on day 1 (healthy dogs; [4]) [mL]	Urinary volume on day 14 (healthy dogs; [4]) [mL]	Urinary volume compared with test control (placebo) (healthy dogs; 0.20 to 0.50 mg/kg/day of torasemide, day 1 and day 14) [mL]	Urinary volume on day 1 (healthy dogs; [5]) [mL]	Urinary volume on day 14 (healthy dogs; [5]) [mL]	Urinary volume on day 1 (healthy dogs; [6]) [mL]	Urinary volume on day 14 (healthy dogs; [6]) [mL]	Urinary volume on day 1 (healthy dogs; [7]) [mL]	Urinary volume on day 14 (healthy dogs; [7]) [mL]	Urinary volume on day 1 (healthy dogs; [8]) [mL]	Urinary volume on day 14 (healthy dogs; [8]) [mL]	Diuretic potency compared with furosemide [1]	Duration of diuretic effect compared with furosemide [1]	Diuretic potency compared with reference dose of furosemide [2]
NS(=O)(=O)c1cc(C(=O)O)c(NCc2ccco2)cc1Cl [Furosemide, furosemide]	374	532	620	1033	–	–	–	–	–	–	–	–	–	–	–	–
Cc1cccc(Nc2ccncc2S(=O)(=O)NC(=O)NC(C)C)c1 [Torasemide, N-[(isopropylamino)carbonyl]-4-[(3-methylphenyl)amino] pyridine-3-sulfonamide]	–	–	–	–	> 220	455	561	500	696	659	816	700	1100	as potent as furosemide	longer diuretic effect	as potent in producing a diuretic effect
